# Data: paper PMC10790670 (Environmental science & technology, 2023)
# Values joined by “and” are separate entries in the source; they are usually repeats but may differ in a detail not shown here. Equal entries are not always repeated. Where two headings read alike, the source gives them in different places. Marks after values point to notes of the source that are not given here.
# Tests used:
# [1] = cited from earlier work; for published half-lives: biological half-lives quoted in abstract
# [2] = predicted values from EPA Chemistry Dashboard; cited from earlier work
# [3] = Serum PFAS measurement by LC-HRMS, GenX Exposure Study participants; conditions: human, in vivo
# [4] = experimental values from EPA Chemistry Dashboard; cited from earlier work
# [5] = both, human, in vivo
# [6] = weighted average, ref Zhang et al. 16
# [7] = literature serum half-life, ref Li et al. 19
# [8] = literature serum half-life, ref Li et al. 12
structure (smiles),measurement,setting,value
"O=C(O)C(F)(OC(F)(F)C(F)(F)C(F)(F)F)C(F)(F)F (stereo not shown) [GenX, hexafluoropropylene oxide dimer acid]",half-life,"[1]; in workers, ECHA estimate",81 h
same,half-life,[1]; values from ECHA report,3.375^f days and 3.38^e days
same,logKow,[2],5.13^a
"O=S(=O)(O)C(F)(F)C(F)(F)OC(F)C(F)(F)F (stereo not shown) [NVHOS, 1,1,2,2-tetrafluoro-2-(1,2,2,2-tetrafluoroethoxy)ethanesulfonic acid]",concentration at 5 months,[3],1.14 ng/mL
same,logKow,[2],2.58^a
"O=S(=O)(O)C(F)(F)C(F)(F)C(F)(F)C(F)(F)F [PFBS, perfluorobutanesulfonic acid]",half-life,[1]; ref Olsen et al. 54,26^h days
same,logKow,[4],2.76^b
O=C(O)C(F)(F)C(F)(F)C(F)(F)C(F)(F)C(F)(F)C(F)(F)C(F)(F)C(F)(F)C(F)(F)F [PFDA],half-life,[1]; [6],3743^i days
same,logKow,[4],4.15^b
"O=C(O)C(F)(F)C(F)(F)C(F)(F)C(F)(F)C(F)(F)C(F)(F)F [PFHpA, perfluoroheptanoic acid]",published half-lives,[1],30 to 60 days
same,half-life,[1]; [6],464^i days
same,logKow,[4],2.05^b
O=S(=O)(O)C(F)(F)C(F)(F)C(F)(F)C(F)(F)C(F)(F)C(F)(F)C(F)(F)F [PFHpS],half-life,[1]; [7],533^e days
same,logKow,[2],4.85^a
"O=C(O)C(F)(F)C(F)(F)C(F)(F)C(F)(F)C(F)(F)F [PFHxA, perfluorohexanoic acid]",published half-lives,[1],30 to 60 days
same,half-life,[1]; ref Russel et al. 52,32^g days
same,logKow,[2],2.8^a
"O=S(=O)(O)C(F)(F)C(F)(F)C(F)(F)C(F)(F)C(F)(F)C(F)(F)F [PFHxS, perfluorohexanesulfonic acid]",half-life,[1]; [7],1661^e days
same,logKow,[2],3.48^a
"O=C(O)C(F)(F)C(F)(F)C(F)(F)C(F)(F)C(F)(F)C(F)(F)C(F)(F)C(F)(F)F [PFNA, perfluorononanoic acid]",half-life,[1]; [6],1417^i days
same,logKow,[4],3.54^b
"O=C(O)C(F)(F)OC(F)(F)OC(F)(F)OC(F)(F)F [PFO3OA, perfluoro-3,5,7-trioxaoctanoic acid]",concentration at 5 months,[3],1.02 ng/mL
same,logKow,[2],6.07^a
"O=C(O)C(F)(F)OC(F)(F)OC(F)(F)OC(F)(F)OC(F)(F)F [PFO4DA, perfluoro-3,5,7,9-tetraoxadecanoic acid]",concentration at 5 months,[3],5.6 ng/mL
same,concentration at 11 months,[3],1.16 ng/mL
same,effect of age on concentration,[5],0.0129 ng/mL/year
same,effect of gender concentration in males,[5],0.376 ng/mL
same,logKow,[2],8.53^a
"O=C(O)C(F)(F)OC(F)(F)OC(F)(F)OC(F)(F)OC(F)(F)OC(F)(F)F [PFO5DoA, perfluoro-3,5,7,9,11-pentaoxadodecanoic acid]",concentration at 5 months,[3],12.4 ng/mL
same,concentration at 11 months,[3],8.91 ng/mL
same,effect of age on concentration,[5],0.0160 ^* ng/mL/year
same,effect of gender concentration in males,[5],0.298 ng/mL
"O=C(O)C(F)(F)C(F)(F)C(F)(F)C(F)(F)C(F)(F)C(F)(F)C(F)(F)F [PFOA, perfluorooctanoic acid]",published half-lives,[1],800 to 1200 days
same,half-life,[1]; [8],902^c days
same,half-life,[1]; [7],902^e days
same,logKow,[4],3.1^b
"O=S(=O)(O)C(F)(F)C(F)(F)C(F)(F)C(F)(F)C(F)(F)C(F)(F)C(F)(F)C(F)(F)F [PFOS, perfluorooctanesulfonic acid]",published half-lives,[1],800 to 1200 days
same,half-life,[1]; [8],1241^d days
same,logKow,[4],5.61^b
O=S(=O)(O)C(F)(F)C(F)(F)C(F)(F)C(F)(F)C(F)(F)F [PFPeS],half-life,[1]; [7],343^e days
same,logKow,[2],3.38^a
O=C(O)C(F)(F)C(F)(F)C(F)(F)C(F)(F)C(F)(F)C(F)(F)C(F)(F)C(F)(F)C(F)(F)C(F)(F)F [PFUnA],half-life,[1]; [6],3743^i days
same,logKow,[4],4.00^b
